Laboratory results reported in publication PMC10897212, “Structural insight into the allosteric inhibition of human sodium-calcium exchanger NCX1 by XIP and SEA0400” (The EMBO Journal, 2023).

Target: T1, Na+/Ca2+ exchanger NCX1.3 (Homo sapiens, UniProt P32418)
T1 construct: gene SLC8A1; full-length wild-type human NCX1.3 (UniProtKB P32418-2); model residues 51–283, 405–501, 518–637, 654–720, and 736–937
Test: cryo-EM structure at […] Å; also CPM thermofluor shift (~[…] °C) and Fura-2 Ca2+ uptake inhibition at […] in HEK293T cells
Type: binding

For CCOc1ccc(Oc2ccc(OCc3cc(F)ccc3F)cc2)c(N)c1 [SEA0400], the “cryo-EM structure at 3.5 Å; also CPM thermofluor shift (~10 °C) and Fura-2 Ca2+” value was “The SEA0400 molecule is allocated within a negatively charged cavity surrounded by TM2ab, TM4, TM5, and TM8”.
